According to BindingDB's records for patent US12071425 (Genentech, 2024):

target: T1, Serine/threonine-protein kinase/endoribonuclease IRE1 [D688N] (Homo sapiens, UniProt O75460, D688N); assay: IRE1α TR-FRET Competition Binding Assay
T1 construct: gene ERN1
Procedure: To determine the affinity of compound binding to the kinase domain of IRE1 alpha, a Time Resolved Fluorescence Resonance Energy Transfer (TR-FRET) competition assay was used. A His-tagged IRE1 alpha kinase dead construct containing the kinase and RNase domains (KR, AA G547-L977, D688N) was expressed in Sf9 insect cells. The purified protein (final concentration 0.006 μM micromolar) was pre-incubated with anti-His Europium labeled antibody (Life Technologies PV5596, final concentration 0.002 μM micromolar) for one hour at 4° C. in 1X TR-FRET Assay Buffer (50 mM HEPES, pH 7.5.10 mM MgCl2, 0.083 mM Brij 35, 1 mM DTT, and 0.1% bovine gamma globulin) prior to addition to test compounds. A fluorescent labeled probe based on an ATP competitive inhibitor (Kinase Tracer 236, Life Technologies PV5592) is added to a final concentration of 0.1 μM (micromolar). Reactions were carried out for one hour at room temperature in a final volume of 20 μL (microliter) in 384 well white ProxiPlates (Perkin Elmer 6008289). Binding of the tracer to the IRE1 protein alpha was detected in an Envision instrument (PerkinElmer) equipped with a TRF laser option and a LANCE/Delfia Dual/Bias D400/D630 mirror (Ex 347 nm, 1st Em 665 nm, 2nd Em 615 nm).

T1 sequence (O75460 19-977 D688N limits assumed): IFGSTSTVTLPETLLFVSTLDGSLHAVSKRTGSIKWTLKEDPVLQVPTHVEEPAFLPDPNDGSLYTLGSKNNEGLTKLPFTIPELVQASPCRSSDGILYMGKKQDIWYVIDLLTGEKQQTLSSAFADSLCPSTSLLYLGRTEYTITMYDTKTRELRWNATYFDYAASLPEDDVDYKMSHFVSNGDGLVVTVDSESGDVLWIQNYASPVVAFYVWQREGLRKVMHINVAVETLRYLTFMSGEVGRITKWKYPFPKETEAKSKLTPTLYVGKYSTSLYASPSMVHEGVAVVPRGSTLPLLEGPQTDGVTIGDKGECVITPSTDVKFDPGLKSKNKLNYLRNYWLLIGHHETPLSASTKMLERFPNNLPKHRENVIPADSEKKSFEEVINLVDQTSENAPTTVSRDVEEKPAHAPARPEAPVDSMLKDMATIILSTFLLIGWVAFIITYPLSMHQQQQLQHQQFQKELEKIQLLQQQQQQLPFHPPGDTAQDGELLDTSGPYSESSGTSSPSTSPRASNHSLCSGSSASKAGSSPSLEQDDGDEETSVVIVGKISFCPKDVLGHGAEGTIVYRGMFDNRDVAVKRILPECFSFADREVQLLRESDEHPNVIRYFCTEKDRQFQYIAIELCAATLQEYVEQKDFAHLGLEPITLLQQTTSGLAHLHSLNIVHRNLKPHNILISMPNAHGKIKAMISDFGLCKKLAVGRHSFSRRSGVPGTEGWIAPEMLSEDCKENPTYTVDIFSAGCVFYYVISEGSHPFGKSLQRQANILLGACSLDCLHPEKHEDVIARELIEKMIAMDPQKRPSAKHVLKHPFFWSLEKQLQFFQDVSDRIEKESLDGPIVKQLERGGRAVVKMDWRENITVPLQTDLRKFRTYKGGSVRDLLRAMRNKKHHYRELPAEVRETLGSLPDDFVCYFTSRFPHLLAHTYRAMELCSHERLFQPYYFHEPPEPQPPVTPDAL

For `O=S(=O)(Nc1ccc(Oc2ncccc2-c2ccnc(N[C@H]3CCCNC3)n2)c(F)c1F)c1ccccc1Cl` [US12071425, Compound 227], which IC50 is on record?
The IC50 was 4.8 nM.

Which IC50 does the source give for `O=S(=O)(CC(F)(F)F)Nc1c(F)cc(Oc2ncccc2-c2ccnc(N[C@@H]3CNC[C@@H](F)C3)n2)c(F)c1F` [US12071425, Compound 260] here?
Its IC50 is 2.6 nM.

How did the IC50 turn out when `CN(C)[C@H]1CC[C@H](Nc2nccc(-c3cccnc3Oc3cc(F)c(NS(=O)(=O)CCC(F)(F)F)c(F)c3F)n2)CC1` [US12071425, Compound 382] was run?
Its IC50 is 2 nM.
